Test results from patent publication US20190322676A1, “CERAMIDE GALACTOSYLTRANSFERASE INHIBITORS FOR THE TREATMENT OF DISEASE” (BioMarin Pharmaceutical Inc., priority 2016, published 2019).
Structures can show the parent of a compound that is named as a salt.

Target: T1, human CGT (ceramide galactosyltransferase), CHO/CGT lysate (Homo sapiens, UniProt Q16880)
T1 construct: Full-length human CGT cDNA was cloned into the BamH1/Xho1 site of pcDNA3.1 (+); expressed in transfected cells; host or cells: Chinese hamster ovary (CHO) cells; lysate prepared with M-PER
T1 sequence (Q16880 21-541): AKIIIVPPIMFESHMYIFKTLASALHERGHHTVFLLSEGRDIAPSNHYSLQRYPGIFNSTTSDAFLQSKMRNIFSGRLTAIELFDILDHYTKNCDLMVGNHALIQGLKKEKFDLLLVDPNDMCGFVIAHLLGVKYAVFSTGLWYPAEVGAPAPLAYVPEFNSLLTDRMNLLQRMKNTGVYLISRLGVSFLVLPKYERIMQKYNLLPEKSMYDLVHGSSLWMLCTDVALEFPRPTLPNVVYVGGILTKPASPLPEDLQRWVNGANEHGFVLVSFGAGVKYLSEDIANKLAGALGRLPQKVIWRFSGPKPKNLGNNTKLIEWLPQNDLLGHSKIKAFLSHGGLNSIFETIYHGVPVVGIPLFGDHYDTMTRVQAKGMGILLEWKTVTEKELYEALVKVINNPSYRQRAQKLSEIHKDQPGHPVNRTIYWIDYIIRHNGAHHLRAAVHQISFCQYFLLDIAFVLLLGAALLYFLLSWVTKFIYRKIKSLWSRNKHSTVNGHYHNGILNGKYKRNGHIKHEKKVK
Assay: CGT enzyme assay, RapidFire/MS/MS readout (Table 1 ranges with one asterisk *)
Format: biochemical
Conditions: RapidFire method (range with one asterisk *)
Method in brief: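 IC50s come from variable-slope dose-response fits of internal-standard-normalized C6-NBD-dihydro-galactosylceramide, measured by RapidFire/MS/MS (ESI negative). Reactions: 1 h, 37 °C, human CGT-expressing CHO lysate (4 μg), 0.001–50 μM compound, 10 μM NBD-dihydro-ceramide, 17.5 μM UDP-galactose, 0.5% DMSO, pH 7.2; 0.01% Tween 80 added for ** values.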

First: CN([C@@H](C(=O)N1CCC(N)CC1)C(F)(F)c1ccc(Oc2ccccc2)cc1)S(=O)(=O)c1ccc(OCC2CCCCC2)cc1 [Compound 64-2, (S)—N-(3-(4-aminopiperidin-1-yl)-1,1-difluoro-3-oxo-1-(4-phenoxyphenyl)propan-2-yl)-4-(cyclohexylmethoxy)-N-methylbenzenesulfonamide]
Second: CCCCOc1ccc(C(F)(F)[C@H](NS(=O)(=O)c2ccc(OCC3CCCCC3)cc2)C(=O)N2CCC(N)CC2)cc1 [Compound 81-1, (R)—N-(3-(4-aminopiperidin-1-yl)-1-(4-butoxyphenyl)-1,1-difluoro-3-oxopropan-2-yl)-4-(cyclohexylmethoxy)benzenesulfonamide trifluoroacetate]
The IC50 of the first is higher: 10 to 30 µM for the first, 1 to 10 µM for the second.

`CN([C@H](C(=O)N1C2CCC1CC(N)C2)C(F)(F)c1ccc(C(F)(F)F)cc1)S(=O)(=O)c1ccc2cc(OC3CCCC3)ccc2c1` (stereo partly drawn) [Compound 73-1, N-((2R)-3-(3-amino-8-azabicyclo[3.2.1]octan-8-yl)-1,1-difluoro-3-oxo-1-(4-(trifluoromethyl)phenyl)propan-2-yl)-6-(cycyclopentyloxy)-N-methylnaphthalene-2-sulfonamide] and `CN([C@H](C(=O)N1C2CCC1CC(N)C2)C(F)(F)c1ccc(Cl)cc1)S(=O)(=O)c1ccc2cc(OC3CCCC3)ccc2c1` (stereo partly drawn) [Compound 52-1, N-((2R)-3-(3-amino-8-azabicyclo[3.2.1]octan-8-yl)-1-(4-chlorophenyl)-1,1-difluoro-3-oxopropan-2-yl)-6-(cyclopentyloxy)-N-methylnaphthalene-2-sulfonamide] cannot be ordered by IC50: less than 1 µM for the first, less than 1 µM for the second.

Compared with `CN([C@@H](C(=O)N1C2CCC1CC(N)C2)C(F)(F)c1ccc(OCCN2CCCCC2)cc1)S(=O)(=O)c1ccc2cc(OC3CCCC3)ccc2c1` (stereo partly drawn) [Compound 116-2, N-((2S)-3-(3-amino-8-azabicyclo[3.2.1]octan-8-yl)-1,1-difluoro-3-oxo-1-(4-(2-(piperidin-1-yl)ethoxy)phenyl)propan-2-yl)-6-(cyclopentyloxy)-N-methylnaphthalene-2-sulfonamide], `CCCCOc1ccc(C(F)(F)[C@H](C(=O)N2C3CCC2CC(N)C3)N(C)S(=O)(=O)c2ccc(OCC3CCCCC3)cc2)cc1` (stereo partly drawn) [Compound 79-2, N-((2S)-3-(3-amino-8-azabicyclo[3.2.1]octan-8-yl)-1-(4-butoxyphenyl)-1,1-difluoro-3-oxopropan-2-yl)-4-(cyclohexylmethoxy)-N-methylbenzenesulfonamide] is lower in IC50: 30 to 100 µM for the first, 1 to 10 µM for the second.

Compared with `COc1cc(C(F)(F)[C@H](NS(=O)(=O)c2ccc(OCC3CCCCC3)cc2)C(=O)N2C3CCC2CC(N)C3)ccc1Cl` (stereo partly drawn) [Compound 125-1, N-((2R)-3-(3-amino-8-azabicyclo[3.2.1]octan-8-yl)-1-(4-chloro-3-methoxyphenyl)-1,1-difluoro-3-oxopropan-2-yl)-4-(cyclohexylmethoxy) benzenesulfonamide], `NC1CC2CCC(C1)N2C(=O)[C@@H](NS(=O)(=O)c1ccc(OCC2CCCCC2)cc1)C(F)(F)c1ccc(-c2ccc(Cl)s2)cc1` (stereo partly drawn) [Compound 104-1, N-((2R)-3-(3-amino-8-azabicyclo[3.2.1]octan-8-yl)-1-(4-(5-chlorothiophen-2-yl)phenyl)-1,1-difluoro-3-oxopropan-2-yl)-4-(cyclohexylmethoxy) benzenesulfonamide] is higher in IC50: less than 1 µM for the first, 1 to 10 µM for the second.

Compared with `CN([C@H](C(=O)N1C2CCC1CC(N)C2)C(F)(F)c1ccc(Br)cc1)S(=O)(=O)c1ccc2c(cnn2CC2CCCC2)c1` (stereo partly drawn) [Compound 75-1, N-((2R)-3-(3-amino-8-azabicyclo[3.2.1]octan-8-yl)-1-(4-bromophenyl)-1,1-difluoro-3-oxopropan-2-yl)-1-(cyclopentylmethyl)-N-methyl-1H-indazole-5-sulfonamide], `NC1CC2CCC(C1)N2C(=O)[C@H](NS(=O)(=O)c1ccc(OCC2CCCC2)cc1)C(F)(F)c1ccc2cc(Br)ccc2c1` (stereo partly drawn) [Compound 39-2, N-((2S)-3-(3-amino-8-azabicyclo[3.2.1]octan-8-yl)-1-(6-bromonaphthalen-2-yl)-1,1-difluoro-3-oxopropan-2-yl)-4-(cyclopentylmethoxy)benzenesulfonamide trifluoroacetate] is higher in IC50: 1 to 10 µM for the first, 10 to 30 µM for the second. The first is the more potent here.

First: CCCCOc1cccc(C(F)(F)[C@H](NS(=O)(=O)c2ccc3cc(OC4CCCC4)ccc3c2)C(=O)N2CCC(N)CC2)c1 [Compound 83-1, (R)—N-(3-(4-aminopiperidin-1-yl)-1-(3-butoxyphenyl)-1,1-difluoro-3-oxopropan-2-yl)-6-(cyclopentyloxy)naphthalene-2-sulfonamide trifluoroacetate]
Second: N[C@@H]1CCCN(C(=O)[C@@H](NS(=O)(=O)c2ccc3cc(OC4CCCC4)ccc3c2)C(F)(F)c2ccc(Br)cc2)C1 [Compound 122-1, N—((R)-3-((R)-3-aminopiperidin-1-yl)-1-(4-bromophenyl)-1,1-difluoro-3-oxopropan-2-yl)-6-(cyclopentyloxy)naphthalene-2-sulfonamide]
The IC50 of the first is lower: less than 1 µM for the first, 1 to 10 µM for the second.

`NC1CC2CCC(C1)N2C(=O)[C@H](NS(=O)(=O)c1ccc2cc(OC3CCCC3)ccc2c1)C(F)(F)c1ccc2cc(Br)ccc2c1` (stereo partly drawn) [Compound 38-2, N-((2S)-3-(3-amino-8-azabicyclo[3.2.1]octan-8-yl)-1-(6-bromonaphthalen-2-yl)-1,1-difluoro-3-oxopropan-2-yl)-6-(cyclopentyloxy)naphthalene-2-sulfonamide trifluoroacetate] and `NC1CC2CCC(C1)N2C(=O)[C@H](NS(=O)(=O)c1ccc2cc(OC3CCCC3)ccc2c1)C(F)(F)c1cccc(Oc2ccccc2)c1` (stereo partly drawn) [Compound 107-2, N-((2S)-3-(3-amino-8-azabicyclo[3.2.1]octan-8-yl)-1,1-difluoro-3-oxo-1-(3-phenoxyphenyl)propan-2-yl)-6-(cyclopentyloxy)naphthalene-2-sulfonamide] fall in the same range of IC50: 1 to 10 µM for the first, 1 to 10 µM for the second.

First: CN([C@H](C(=O)N1CCC(N)CC1)C(F)(F)c1ccc(Cl)cc1)S(=O)(=O)c1ccc2cc(OC3CCCC3)ccc2c1 [Compound 100-1, (R)—N-(3-(4-aminopiperidin-1-yl)-1-(4-chlorophenyl)-1,1-difluoro-3-oxopropan-2-yl)-6-(cyclopentyloxy)-N-methylnaphthalene-2-sulfonamide]
Second: COc1cc(C(F)(F)[C@@H](NS(=O)(=O)c2ccc3cc(OC4CCCC4)ccc3c2)C(=O)N2C3CCC2CC(N)C3)ccc1-c1ccc(Cl)cc1 (stereo partly drawn) [Compound 135-2, N-((2S)-3-(3-amino-8-azabicyclo[3.2.1]octan-8-yl)-1-(4′-chloro-2-methoxy-[1,1′-biphenyl]-4-yl)-1,1-difluoro-3-oxopropan-2-yl)-6-(cyclopentyloxy)naphthalene-2-sulfonamide trifluoroacetate]
The IC50 of the first is lower: less than 1 µM for the first, 1 to 10 µM for the second. The first is the more potent here.

First: NC1CC2CCC(C1)N2C(=O)[C@@H](NS(=O)(=O)c1ccc(OCC2CCCCC2)cc1)C(F)(F)c1ccc(-c2ccccc2)cc1 (stereo partly drawn) [Compound 35-1, N-((2R)-1-([1,1′-biphenyl]-4-yl)-3-(3-amino-8-azabicyclo[3.2.1]octan-8-yl)-1,1-difluoro-3-oxopropan-2-yl)-4-(cyclohexylmethoxy)benzenesulfonamide trifluoroacetate]
Second: NC1CC2CCC(C1)N2C(=O)[C@H](NS(=O)(=O)c1ccc2cc(OC3CCCC3)ccc2c1)C(F)(F)c1cccc(-c2ccccc2)c1 (stereo partly drawn) [Compound 66-2, N-((2S)-1-([1,1′-biphenyl]-3-yl)-3-(3-amino-8-azabicyclo[3.2.1]octan-8-yl)-1,1-difluoro-3-oxopropan-2-yl)-6-(cyclopentyloxy)naphthalene-2-sulfonamide]
The IC50 of the first is lower: less than 1 µM for the first, 1 to 10 µM for the second. The first is the more potent here.
